Source: ChEMBL document CHEMBL1201862, “PubChem BioAssay data set” (2004)
Activity calls are given as the source filed them.

Legend:
[1] = biological target: T1, Endoribonuclease toxin MazF (Escherichia coli K-12, UniProt P0AE70); assay: activation of MazEF endoribonuclease cleavage – biochemical, fluorescence, single-stranded RNA substrate, uHTS hits, dose response (AID 588481); format: functional
T1 sequence (P0AE70 whole entry): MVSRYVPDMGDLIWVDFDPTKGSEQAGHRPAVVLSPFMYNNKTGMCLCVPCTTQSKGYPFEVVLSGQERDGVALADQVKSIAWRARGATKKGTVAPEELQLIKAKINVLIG

[2] = biological target: T1, Endoribonuclease toxin MazF; assay: substrate-only fluorescence increase artefacts – biochemical, single-stranded RNase substrate, counter-screen for MazEF activator project, dose response (AID 588502); format: functional
[3] = biological target: Lysine-specific demethylase 4C (Homo sapiens, UniProt Q9H3R0); assay: inhibition of JMJD2C H3K9me3 demethylation – biochemical, DELFIA europium, cherry-picked samples, dose response (AID 488835); format: functional
[4] = biological target: T2, DNA repair protein RAD52 homolog (Homo sapiens, UniProt P43351); format: functional, biochemical
T2 sequence (P43351 whole entry): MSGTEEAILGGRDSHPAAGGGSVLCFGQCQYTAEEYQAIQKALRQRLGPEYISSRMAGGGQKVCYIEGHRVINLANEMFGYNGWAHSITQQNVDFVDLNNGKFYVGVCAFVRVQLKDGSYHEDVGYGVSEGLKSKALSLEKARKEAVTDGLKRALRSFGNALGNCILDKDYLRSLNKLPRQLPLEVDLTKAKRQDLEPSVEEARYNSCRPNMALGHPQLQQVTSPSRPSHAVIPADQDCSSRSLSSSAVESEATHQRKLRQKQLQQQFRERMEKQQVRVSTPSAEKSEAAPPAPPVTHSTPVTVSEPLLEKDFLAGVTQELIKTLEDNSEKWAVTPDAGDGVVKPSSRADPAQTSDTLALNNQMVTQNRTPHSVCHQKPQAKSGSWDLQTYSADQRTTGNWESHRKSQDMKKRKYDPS

[5] = biological target: T3, Ubiquitin-conjugating enzyme E2 N (Homo sapiens, UniProt P61088); format: functional
T3 sequence (P61088 whole entry): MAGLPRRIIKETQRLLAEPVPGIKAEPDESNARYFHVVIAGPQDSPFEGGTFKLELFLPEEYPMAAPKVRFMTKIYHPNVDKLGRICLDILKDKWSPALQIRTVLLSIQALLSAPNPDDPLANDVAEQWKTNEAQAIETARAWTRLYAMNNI

[6] = biological target: T3, Ubiquitin-conjugating enzyme E2 N; format: functional; remark: listed apart in the source
[7] = biological target: T4, Bcl-2-related protein A1 (Mus musculus, UniProt Q07440); format: functional;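 note: confirmatory dose–response counterscreen on Bfl-1, used to check hits from a UBC13 polyubiquitin inhibitor campaign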
T4 sequence (Q07440 whole entry): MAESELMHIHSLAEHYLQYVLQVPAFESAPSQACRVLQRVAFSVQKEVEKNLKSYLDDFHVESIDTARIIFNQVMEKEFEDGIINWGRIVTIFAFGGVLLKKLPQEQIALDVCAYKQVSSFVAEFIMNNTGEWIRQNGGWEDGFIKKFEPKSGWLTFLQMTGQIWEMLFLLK

[8] = Luminescence Cell-Based Dose Confirmation HTS to Identify Inhibitors of Platelet Dense Granule Release. [Related pubchem assays: 1663 (Primary HTS), 1678 (Summary of Project)]; format: functional
[9] = system: BJ; assay: growth inhibition of engineered Ras-driven BJ cells – cell-based, alamar blue fluorescence, cherrypicked samples, dose response (AID 2631); format: functional; details: Homo sapiens;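 note: confirmatory dose-response assay in RAS-dependent BJ fibroblasts engineered with TERT, LT and ST, with cytotoxicity read by fluorescence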
[10] = loss of viability in HepG2 cells – cell-based, CellTiter-Glo, cherry-picked, cytotoxicity control for Shn3 inhibitor project, dose response (AID 624134); format: functional
[11] = non-specific 3'UTR reporter inhibition in Clone20-Shn3RL – cell-based, Renilla luciferase, cherry-picked, counter-screen for Shn3 inhibitor project, dose response (AID 624133); format: functional
[12] = Shn3 3'UTR reporter signal decrease – cell-based, Clone20 osteoblasts, firefly luciferase, cherry-pick, set 2, Schnurri-3 inhibitor project, dose response (AID 720490); format: functional;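 note: actives lower the luminescence signal as inhibitors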
[13] = HIV-1 AD8 envelope cell-cell fusion blockers – cherry-pick, dose response (AID 652062); format: functional, cell-based;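 note: luciferase signal from cell-cell fusion driven by HIV-1 clade B AD8 Env; potency is for inhibitors of fusion seen as a drop in luminescence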
[14] = system: Jurkat; assay: blockers of NF-kB activation in T cells – Jurkat, luciferase reporter, luminescence, B- and T-cell, dose response (AID 489004); format: functional, cell-based; details: Homo sapiens;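 note: NF-kB luciferase reporter Jurkat cells stimulated with PMA plus ionomycin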
[15] = HEK-293T viability loss, compound-treated – cell-based, uHTS hits, cytotoxicity control for B/T-cell NF-kB inhibitor project, dose response (AID 489019); format: functional;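 note: IC50 reflects cytotoxicity as loss of cell viability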
[16] = blockers of HIV-1 envelope-mediated cell-cell fusion – cherry-pick, dose response (AID 652057); format: functional, cell-based
[17] = system: BJ; assay: cells; format: functional, cell-based; details: Homo sapiens
[18] = blockers of HIV-1 ZM109 envelope-driven cell-cell fusion – HeLa effector, CEM target cells, luciferase, cherry-pick, dose response (AID 652058); format: functional, cell-based;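 note: luciferase signal from HIV-1 Env mediated cell-cell fusion of effector and target cells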
[19] = viability loss in CEM21 cells – cell-based, CellTiter-Glo luminescence, cherry-picked, cytotoxicity control for viral fusion inhibitor project, dose response (AID 652042); format: functional;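 note: potency for signal decrease meaning cytotoxicity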
[20] = Luminescence-based counterscreen assay for KLF5 inhibitors: dose response cell-based high throughput screening assay to identify cytotoxic compounds using the IEC-6 intestinal epithelial cell line. [Related pubchem assays: 1700 (Primary screen.), 1834 (Confirmation screen.), 1858 (Summary AID.), 1905 (Counterscreen.)]; format: functional
[21] = biological target: Luciferin 4-monooxygenase (Photinus pyralis, UniProt P08659); assay: inhibition of purified Photinus pyralis luciferase – biochemical, luminescence, dose response (AID 1891)
[22] = system: BJ; assay: BJ-TERT-LT-ST fibroblast viability loss – cell-based, RAS-independent, luminescence, dose response (AID 1935); format: functional; details: Homo sapiens;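 note: BJ fibroblasts immortalized with TERT plus LT and ST oncogenes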
[23] = A Cell Based Secondary Assay To Explore Cytotoxicity of Compounds that Sensitize Mycobacterium Tuberculosis to Beta-Lactam Antibiotics.; format: functional
[24] = off-target signal loss in HeLa-CEM21 co-culture – HeLa F-luc CTL cells, cherry-picked, counter-screen for HIV-1 Env fusion inhibitor project, dose response (AID 652040); format: functional, cell-based;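 note: potency for signal decrease marking cytotoxic or nonspecific inhibition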
[25] = reduction of Shn3 3'UTR-driven luciferase in osteoblasts – cell-based, Clone20 osteoblasts, firefly luciferase, cherry-picked, dose response (AID 624132); format: functional;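 note: firefly luciferase luminescence from reporter carrying the Shn3 3'UTR in osteoblasts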
[26] = DRD fibroblast viability loss – cell-based, non-viral oncogenic, luminescence, dose response (AID 1934); format: functional; details: Homo sapiens
[27] = biological target: SUMO E1/E2 (Homo sapiens, UniProt P63279+Q9UBE0+Q9UBT2); assay: SAR analysis of SUMOylation using HTRF in an in-Vitro dose response assay. [Related pubchem assays (depositor defined):AID2006, AID2011, AID2018, AID2069, AID2658]; format: functional
[28] = biological target: T5, Type-1 angiotensin II receptor (Homo sapiens, UniProt P30556); assay: agonist activity at AGTR1 – cell-based, uHTS hits, selectivity assay for APJ receptor agonist project, dose response (AID 488865); format: functional;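 note: beta-arrestin recruitment to AT1 measured by enzyme fragment complementation luminescence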
T5 sequence (P30556 whole entry): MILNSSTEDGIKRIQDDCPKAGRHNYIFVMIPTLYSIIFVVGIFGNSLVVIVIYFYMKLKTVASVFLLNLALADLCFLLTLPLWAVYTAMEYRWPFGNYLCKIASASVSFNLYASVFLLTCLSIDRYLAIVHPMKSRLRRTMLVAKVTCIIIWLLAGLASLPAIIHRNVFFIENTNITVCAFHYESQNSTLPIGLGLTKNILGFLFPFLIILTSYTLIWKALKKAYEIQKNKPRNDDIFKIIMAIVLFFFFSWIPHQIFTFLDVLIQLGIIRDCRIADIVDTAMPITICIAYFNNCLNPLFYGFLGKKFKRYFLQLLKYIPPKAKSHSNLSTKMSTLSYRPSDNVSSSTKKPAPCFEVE

Chain of SUMO E1/E2 (Q9UBE0 whole entry, the tested form may be a part): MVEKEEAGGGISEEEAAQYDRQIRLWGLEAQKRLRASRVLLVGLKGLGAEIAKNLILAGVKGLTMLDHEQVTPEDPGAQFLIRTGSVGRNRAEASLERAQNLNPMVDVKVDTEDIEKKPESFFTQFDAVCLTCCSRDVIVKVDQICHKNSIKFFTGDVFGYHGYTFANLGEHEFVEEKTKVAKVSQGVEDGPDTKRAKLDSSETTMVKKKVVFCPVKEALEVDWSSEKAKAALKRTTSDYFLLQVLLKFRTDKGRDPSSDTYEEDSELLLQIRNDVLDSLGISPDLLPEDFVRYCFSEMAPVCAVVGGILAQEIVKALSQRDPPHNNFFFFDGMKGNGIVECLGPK
Chain of SUMO E1/E2 (Q9UBT2 whole entry, the tested form may be a part): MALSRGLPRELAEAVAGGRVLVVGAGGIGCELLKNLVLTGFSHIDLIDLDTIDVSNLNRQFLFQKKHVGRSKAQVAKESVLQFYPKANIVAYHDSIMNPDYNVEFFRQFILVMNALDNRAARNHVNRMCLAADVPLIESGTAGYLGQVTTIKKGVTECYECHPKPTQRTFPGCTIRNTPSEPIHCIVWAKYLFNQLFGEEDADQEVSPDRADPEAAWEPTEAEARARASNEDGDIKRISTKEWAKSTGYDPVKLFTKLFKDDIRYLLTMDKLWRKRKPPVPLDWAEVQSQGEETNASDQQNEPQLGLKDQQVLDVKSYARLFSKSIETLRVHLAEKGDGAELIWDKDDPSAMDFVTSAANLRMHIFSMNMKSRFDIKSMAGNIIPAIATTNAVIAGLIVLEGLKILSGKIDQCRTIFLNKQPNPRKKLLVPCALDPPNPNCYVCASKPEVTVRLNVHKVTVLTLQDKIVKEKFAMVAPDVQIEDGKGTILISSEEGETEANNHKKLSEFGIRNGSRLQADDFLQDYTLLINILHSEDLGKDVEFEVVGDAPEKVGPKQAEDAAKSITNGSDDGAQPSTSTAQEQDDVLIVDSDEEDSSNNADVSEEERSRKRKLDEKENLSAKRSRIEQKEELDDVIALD
Chain of SUMO E1/E2 (P63279 whole entry, the tested form may be a part): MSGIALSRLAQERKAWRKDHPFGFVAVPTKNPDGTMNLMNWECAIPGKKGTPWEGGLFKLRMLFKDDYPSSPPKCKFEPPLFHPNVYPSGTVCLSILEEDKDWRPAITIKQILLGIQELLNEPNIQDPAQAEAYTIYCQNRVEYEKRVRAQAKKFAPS
Chain of Luciferin 4-monooxygenase (P08659 whole entry): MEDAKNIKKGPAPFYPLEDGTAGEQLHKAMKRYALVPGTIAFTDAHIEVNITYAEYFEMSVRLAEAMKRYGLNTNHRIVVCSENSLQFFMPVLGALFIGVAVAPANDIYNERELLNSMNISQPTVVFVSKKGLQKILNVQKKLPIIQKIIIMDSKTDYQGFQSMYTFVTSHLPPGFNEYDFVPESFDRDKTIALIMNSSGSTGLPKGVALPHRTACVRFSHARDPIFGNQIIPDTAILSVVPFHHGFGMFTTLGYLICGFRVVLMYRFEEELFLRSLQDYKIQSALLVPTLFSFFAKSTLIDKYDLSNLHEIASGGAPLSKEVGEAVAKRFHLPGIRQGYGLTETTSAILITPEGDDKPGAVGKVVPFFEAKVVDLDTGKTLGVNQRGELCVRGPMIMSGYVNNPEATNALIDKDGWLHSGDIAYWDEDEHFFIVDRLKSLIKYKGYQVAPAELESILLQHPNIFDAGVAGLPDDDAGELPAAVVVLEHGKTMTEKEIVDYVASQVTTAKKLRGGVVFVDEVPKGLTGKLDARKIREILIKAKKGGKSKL
Chain of Lysine-specific demethylase 4C (Q9H3R0 whole entry): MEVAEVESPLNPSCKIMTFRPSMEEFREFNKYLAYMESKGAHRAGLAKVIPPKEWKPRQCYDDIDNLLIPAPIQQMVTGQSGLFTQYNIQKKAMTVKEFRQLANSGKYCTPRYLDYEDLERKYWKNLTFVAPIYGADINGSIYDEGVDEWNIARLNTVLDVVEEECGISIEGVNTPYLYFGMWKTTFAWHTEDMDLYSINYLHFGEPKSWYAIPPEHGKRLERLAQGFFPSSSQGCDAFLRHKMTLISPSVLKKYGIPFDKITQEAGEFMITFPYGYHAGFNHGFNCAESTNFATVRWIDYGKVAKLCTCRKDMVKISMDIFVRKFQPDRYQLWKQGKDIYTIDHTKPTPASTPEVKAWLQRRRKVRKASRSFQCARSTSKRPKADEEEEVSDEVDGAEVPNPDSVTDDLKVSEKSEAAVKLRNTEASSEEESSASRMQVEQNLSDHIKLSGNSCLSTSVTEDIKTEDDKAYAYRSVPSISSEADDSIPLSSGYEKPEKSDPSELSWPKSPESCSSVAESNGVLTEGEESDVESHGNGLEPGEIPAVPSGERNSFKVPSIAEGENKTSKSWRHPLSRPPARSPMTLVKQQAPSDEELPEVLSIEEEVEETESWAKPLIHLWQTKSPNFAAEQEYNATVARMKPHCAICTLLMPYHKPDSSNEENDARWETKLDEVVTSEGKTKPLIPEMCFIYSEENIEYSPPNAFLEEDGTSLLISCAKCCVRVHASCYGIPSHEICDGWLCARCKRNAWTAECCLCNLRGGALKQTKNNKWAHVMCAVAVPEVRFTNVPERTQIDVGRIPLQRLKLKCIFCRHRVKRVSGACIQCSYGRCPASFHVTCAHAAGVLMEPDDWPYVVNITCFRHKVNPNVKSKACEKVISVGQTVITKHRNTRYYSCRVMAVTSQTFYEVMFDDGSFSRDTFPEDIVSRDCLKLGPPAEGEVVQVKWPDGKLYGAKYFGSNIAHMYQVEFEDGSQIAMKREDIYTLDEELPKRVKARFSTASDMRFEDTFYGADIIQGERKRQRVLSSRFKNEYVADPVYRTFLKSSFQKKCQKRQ

Q: Which EC50 [1] does the source give for `CC1(C)OC(c2ccccc2)=C/C(=C/C=C2C(=O)NC(=S)NC2=O)O1` here?
A: The EC50 was 11 µM (active).

Q: What about the EC50 [2] of the same compound?
A: The EC50 was 13.9 µM (active).

Q: And the AC50 [3]?
A: The AC50 was 11.6 µM (active).

Q: With `CCN(CC)CCNC(=O)c1ccc(NC(=O)c2cc(-c3ccncc3)nc3ccccc23)cc1` as the compound, how does the AC50 [4] read?
A: The AC50 was 20.4 µM (active).

Q: What about the IC50 [5] of the same compound?
A: The IC50 was > 20 µM (inactive).

Q: What about the IC50 [6] of the same compound?
A: The IC50 was 17 µM (active).

Q: And the IC50 [7]?
A: The IC50 was > 20 µM (inactive).

Q: Which EC50 [8] does the source give for `COc1ccc(C(=O)Nc2nc3ccccc3s2)c(OC)c1` here?
A: Its EC50 is 1.54 µM (active).

Q: What about the EC50 [9] of the same compound?
A: Its EC50 is > 133 µM (inactive).

Q: And the AC50 [10]?
A: Its AC50 is 33.5 µM (active).

Q: What about the AC50 [11] of the same compound?
A: The AC50 was 43.8 µM (active).

Q: And the AC50 [12]?
A: Its AC50 is 450 nM (active).

Q: What about the AC50 [13] of the same compound?
A: Its AC50 is 664 nM (active).

Q: And the IC50 [14]?
A: Its IC50 is < 160 nM (active).

Q: And the IC50 [15]?
A: The IC50 was > 80 µM (inactive).

Q: And the AC50 [16]?
A: Its AC50 is 757 nM (active).

Q: And the EC50 [17]?
A: The EC50 was 5.76 µM (active).

Q: What about the AC50 [18] of the same compound?
A: The AC50 was 6.04 µM (active).

Q: What about the AC50 [19] of the same compound?
A: Its AC50 is 14.2 µM (active).

Q: What about the IC50 [20] of the same compound?
A: The IC50 was 7.69 µM (active).

Q: And the EC50 [21]?
A: The EC50 was 241 nM (active).

Q: What about the EC50 [22] of the same compound?
A: The EC50 was 17.1 µM (active).

Q: What about the CC50 [23] of the same compound?
A: Its CC50 is 29.7 µM (active).

Q: And the AC50 [24]?
A: The AC50 was < 260 nM (active).

Q: And the AC50 [25]?
A: Its AC50 is 523 nM (active).

Q: What about the EC50 [26] of the same compound?
A: Its EC50 is 7.2 µM (active).

Q: With `COc1ccc(CNC(=O)COC(=O)c2cc(-c3cccs3)nc3ccccc23)cc1` as the compound, how does the IC50 [27] read?
A: Its IC50 is 43.3 µM (active).

Q: For `CCOc1cccc2sc(N(CCCN(C)C)C(=O)c3ccc(S(=O)(=O)N(C)Cc4ccccc4)cc3)nc12`, which IC50 [5] is on record?
A: The IC50 was 8.12 µM (active).

Q: And the IC50 [6]?
A: Its IC50 is 8.54 µM (active).

Q: And the IC50 [7]?
A: Its IC50 is > 20 µM (inactive).

Q: And the EC50 [28]?
A: The EC50 was > 100 µM (inactive).
